The assay deals with T1, human Werner helicase (WRN-BV08, Uniprot Q14191, amino acids 517-1235 with L1074F point mutation) (Homo sapiens, UniProt Q14191, L1074F).
T1 construct: Uniprot Q14191, amino acids 517-1235 with L1074F point mutation; TEV-cleavable 8×His (C, cleaved yes); made in house; host or cells: Sf9 insect cells (baculovirus)
The experiment in a line: WRN (BV08) ADP-Glo Assay. Format: biochemical. As to conditions: 0.15 nM WRN, 5 μM ATP, 0.1 nM DNA duplex, 15 min preincubation, 60 min at 25° C., pH 7.5, 1% DMSO; read-out: ADP-Glo_hWRN_IC50. In short, it runs like this: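 ADP produced by WRN helicase fragment 517-1235 (L1074F, baculovirus/Sf9, untagged) read by ADP-Glo luminescence after 60 min at 25 °C with 5 μM ATP and 0.1 nM duplex DNA, following 15 min compound preincubation. Final enzyme 0.15 nM in Bicine pH 7.5 buffer, 1% DMSO; 20 μM NSC-617145 defined full inhibition.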

pIC50: −log10 of the molar value.

T1 sequence (Q14191 with tags, fused parts or gaps L1074F limits assumed): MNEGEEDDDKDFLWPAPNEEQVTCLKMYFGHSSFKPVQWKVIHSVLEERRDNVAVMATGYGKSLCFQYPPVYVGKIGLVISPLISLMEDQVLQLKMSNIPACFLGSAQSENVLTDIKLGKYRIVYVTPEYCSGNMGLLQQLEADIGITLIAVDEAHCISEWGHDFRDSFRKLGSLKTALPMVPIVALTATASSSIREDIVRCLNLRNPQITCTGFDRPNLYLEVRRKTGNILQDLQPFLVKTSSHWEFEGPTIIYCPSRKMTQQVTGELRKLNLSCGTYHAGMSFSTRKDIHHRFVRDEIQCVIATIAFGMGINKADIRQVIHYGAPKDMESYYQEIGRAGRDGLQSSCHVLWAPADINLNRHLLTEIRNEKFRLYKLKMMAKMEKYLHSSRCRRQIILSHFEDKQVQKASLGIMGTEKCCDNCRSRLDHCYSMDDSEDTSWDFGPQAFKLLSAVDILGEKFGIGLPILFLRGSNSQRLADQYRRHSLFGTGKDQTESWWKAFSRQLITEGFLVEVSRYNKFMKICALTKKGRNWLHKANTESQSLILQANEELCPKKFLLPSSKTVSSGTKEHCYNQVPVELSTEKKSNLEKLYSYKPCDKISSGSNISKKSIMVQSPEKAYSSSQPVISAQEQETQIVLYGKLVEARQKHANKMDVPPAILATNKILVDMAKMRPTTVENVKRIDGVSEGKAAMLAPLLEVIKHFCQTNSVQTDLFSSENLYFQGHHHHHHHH

For the compound `Cc1cnccc1CN(C(=O)Cc1ccc(-n2cccc2)cc1)C1C=CS(=O)(=O)C1` (stereo not shown) [I-313, N-(1,1-dioxo-2,3-dihydro-1lambda6-thiophen-3-yl)-N-[(3-methylpyridin-4-yl)methyl]-2-[4-(1H-pyrrol-1-yl)phenyl]acetamide], the pIC50 was 4.30 to 5.00.
As for `COc1cc(CN(C(=O)C(C(=O)N(C)C)c2ccc(-c3ccc(F)cc3)cc2F)C2C=CS(=O)(=O)C2)ccn1` (single isomer, unassigned) [I-235, (2R**)-2-{3,4′-difluoro-[1,1′-biphenyl]-4-yl}-N-[(3R*)-1,1-dioxo-2,3-dihydro-1lambda6-thiophen-3-yl]-N-[(2-methoxypyridin-4-yl)methyl]-N′,N′-dimethylpropanediamide], the figure is 5.00 to 5.30; as for `O=C(C1Cc2cc(-n3cccc3)ccc2O1)N(Cc1ccncc1)C1C=CS(=O)(=O)C1` (stereo not shown) [I-244, N-(1,1-dioxo-2,3-dihydro-1lambda6-thiophen-3-yl)-N-[(pyridin-4-yl)methyl]-5-(1H-pyrrol-1-yl)-2,3-dihydro-1-benzofuran-2-carboxamide], 5.00 to 5.30.
As for `COc1cc(CN(C(=O)Cc2c(F)cc(-n3cccc3C)cc2F)C2C=CS(=O)(=O)C2)ccn1` (stereo not shown) [I-241, 2-[2,6-difluoro-4-(2-methyl-1H-pyrrol-1-yl)phenyl]-N-(1,1-dioxo-2,3-dihydro-1lambda6-thiophen-3-yl)-N-[(2-methoxypyridin-4-yl)methyl]acetamide], the figure is 5.00 to 5.30; as for `CNC(=O)C(C(=O)N(Cc1ccnc(C(C)(C)O)c1)C1C=CS(=O)(=O)C1)c1ccc(-c2ccc(F)c(F)c2)cc1F` (single isomer, unassigned) [I-689, (2R**)-N′-[(3R*)-1,1-dioxo-2,3-dihydro-1lambda6-thiophen-3-yl]-N′-{[2-(2-hydroxypropan-2-yl)pyridin-4-yl]methyl}-N-methyl-2-{3,3′,4′-trifluoro-[1,1′-biphenyl]-4-yl}propanediamide], greater than 6.30.
Turning to `COc1cc(CN(C(=O)C(C(=O)N(C)C)c2ccc(-c3ccc(F)cc3)cc2F)C2C=CS(=O)(=O)C2)ccn1` (single isomer, unassigned) [I-312, (2R**)-2-{3,4′-difluoro-[1,1′-biphenyl]-4-yl}-N-[(3R*)-1,1-dioxo-2,3-dihydro-1lambda6-thiophen-3-yl]-N-[(2-methoxypyridin-4-yl)methyl]-N′,N′-dimethylpropanediamide], the pIC50 is less than 4.30.
The same measure for `CC(C)(O)c1csc(CN(C(=O)Cn2cc(-c3cc(F)c(F)c(F)c3)cn2)C2C=CS(=O)(=O)C2)n1` (single isomer, unassigned) [I-798]: greater than 6.30; for `COc1cc(CN(C(=O)C(C(=O)N(C)C)c2ccc(-c3ccc(F)cc3)cc2F)C2C=CS(=O)(=O)C2)ccn1` (single isomer, unassigned) [I-267, (2R**)-2-{3,4′-difluoro-[1,1′-biphenyl]-4-yl}-N-[(3R*)-1,1-dioxo-2,3-dihydro-1lambda6-thiophen-3-yl]-N-[(2-methoxypyridin-4-yl)methyl]-N′,N′-dimethylpropanediamide]: 4.30 to 5.00.
As for `O=C(C1Cc2cc(-c3ccc(F)cc3)ccc21)N(Cc1ccncc1)C1C=CS(=O)(=O)C1` (stereo not shown) [I-249, N-(1,1-dioxo-2,3-dihydro-1lambda6-thiophen-3-yl)-3-(4-fluorophenyl)-N-[(pyridin-4-yl)methyl]bicyclo[4.2.0]octa-1(6),2,4-triene-7-carboxamide], the figure is 5.00 to 5.30; as for `CC(C)(O)c1cc(CN(C(=O)C(c2ccc(-c3ccc(F)c(F)c3)cc2F)n2cccn2)C2C=CS(=O)(=O)C2)ccn1` (single isomer, unassigned) [I-670, (2R*)-N-[(3R**)-1,1-dioxo-2,3-dihydro-1lambda6-thiophen-3-yl]-N-{[2-(2-hydroxypropan-2-yl)pyridin-4-yl]methyl}-2-(1H-pyrazol-1-yl)-2-{3,3′,4′-trifluoro-[1,1′-biphenyl]-4-yl}acetamide], 5.30 to 6.30.

Source of the values: US20260297070A1, “CYCLIC [COMPOUND LEFT OUT] WRN INHIBITORS” (Nimbus Wadjet, Inc., priority 2023, published 2026).
